Data on nine substances can be found in patent US11279736B2, “Conformationally-preorganized, MiniPEG-containing gamma-peptide nucleic acids” (CARNEGIE MELLON UNIVERSITY, priority 2011, dated 2022).

pKd: −log10 of the molar value. Where two headings read alike, the source gives them in different places. Marks after values point to notes of the source that are not given here. [RMPγPNA-N] = PNA unit with R-MP-gamma backbone modification (N: the base)

Data set [1] in a line: Water solubility, saturated concentration by UV-spectroscopy. As to conditions: saturated solution in water. Type of data set: physicochemical. The procedure: To determine whether inclusion of miniPEG in the backbone of a Formula I PNA has an effect on water solubility of the resultant oligomer, saturating concentrations of PNA6 through 10 (Table 1) were prepared in water and the concentrations of each solution was measured by UV-spectroscopy. The incorporation of a single MP unit enhances the solubility of PNA6 by nearly 2-fold (Table 5). The solubility of the oligomers is further improved, albeit to a smaller extent, with additional MP units.

Data set [2] relates to DNA fragment, 171 bp in length (no complementary sequence). Description: Non-denaturing gel-shift assay for non-specific (off-target) binding. The method, then:
FIG. 6 illustrates the results of a non-denaturing gel-shift assay that was aimed at evaluating the extent of non-specific binding for an unmodified PNA oligomer (PNA6) and a oligomer containing the inventive R-MP-γPNA monomer (PNA10).
To assess the extent of off-target binding of PNA and ^R-MPγPNA, a gel-shift assay is performed. In this case, a DNA fragment, 171 bp in length, is incubated with different concentrations of PNA6 and PNA10 (Table 1) in 10 mM sodium phosphate buffer at 37° C. for 16 hr. The two oligomers contain identical nucleobase sequence but differ from another at the γ-backbone. PNA6 is unmodified, whereas PNA10 is modified at every other position with R-MP-γ side-chain. Following incubation, the samples are separated on non-denaturing polyacrylamide gel and stained with SYBR-Gold.

The next data set relates to complementary DNA strand. The data set can be described thus: UV-melting / van't Hoff analysis of PNA-DNA hybrid duplexes. It counts as binding. The following applies: PNA-DNA duplex, 298 K; for pKd: UV melting; for −ΔG° / −ΔH° / −ΔTS°: averages of three trials. The method, then:
(§1) FIGS. 2A-2B illustrate UV-melting profiles of PNA-DNA (FIG. 2A) and PNA-RNA (FIG. 2B) hybrid duplexes at a strand concentration of […] each in 10 mM sodium phosphate buffer at pH 7.4. While both the heating and cooling runs were performed because they both have nearly identical profiles UV-melting for only the heating runs are shown.
UV-melting experiments were performed to determine the effect of MP on the thermal stability of PNA oligomers following hybridization to DNA or an RNA. FIG. 3A illustrates that the incorporation of a single miniPEG side-chain stabilized a PNA-DNA duplex by 4° C. […] However, increase in thermal stability tapers off to a value of about 2.3° C. per unit for the fully-modified oligomer, that is an oligomer made up of R-MP-γPNA groups only (e.g., PNA5).
(§2) Further insights related to the contribution of miniPEG to the stability of the PNA-DNA duplex was obtained from van′t Hoff analysis. Data in Table 2 show the thermodynamic parameters associated with hybridization of PNA1 through 5 to a complementary DNA or RNA strand.

Another data set relates to complementary RNA strand. The data set can be described thus: UV-melting / van't Hoff analysis of PNA-RNA hybrid duplexes. Type of data set: binding. The method, then:
as §1
A similar pattern is observed for a R-MP-γPNA-RNA duplex, but the observed increase in thermal stability is lower for a R-MP-γPNA-RNA duplex as compared to a R-MP-γPNA-DNA duplex (FIG. 3B). The enhancement in thermal stability of a R-MP-γPNA-RNA duplex is only 3° C. for the first R-MP-γPNA-monomer that is incorporated into the PNA oligomer and this gain in thermal stability reduces to about 1.2° C. per R-MP-γPNA monomer for an oligomer made entirely R-MP-γPNA (PNA5). In contrast the gain in thermal stability is about 2.3° C./unit for R-MP-γPNA-DNA duplexes.
as §2

The test system of data set [3] is immobilized complementary DNA. The data set can be described thus: Surface plasmon resonance (SPR) hybridization kinetics. Type of data set: binding. As to conditions: for association rate constant ka / dissociation rate constant kd / pKd: SPR; for association rate constant ka / dissociation rate constant kd: 1:1 binding model; for dissociation rate constant kd: † values approach limits of detection. The method, then:
FIG. 4 illustrates surface plamon resonance (SPR) sensorgrams (solid black lines) and fits (dotted lines) for hybridization of PNA probes to immobilized complementary DNA. Solutions contained 30 nM PNA. Error bars at t=420 sec illustrate standard deviations for three separate trials.
Surface plasmon resonance (SPR) analysis is used to study the hybridization kinetics of ^R-MPγPNA-DNA and ^R-MPγPNA-RNA duplexes. Briefly, SPR was performed as follows. According to one embodiment, the PNA probe was immobilized to the chip while the DNA target was captured from solution. In another embodiment, a biotinylated version of the DNA target is immobilized on a streptavidin-conjugated, carboxymethylated dextran chip at a relatively low surface density (ca. 100 response units) of DNA targets to limit mass transport effects on the association kinetics. Solutions containing 10-50 nM PNA oligomers are allowed to flow over the chip for about 420 seconds, at which point the flow is switched to a PNA-free buffer to allow net dissociation of the hybridized PNA.
(In general: SPR reads the build-up and loss of mass on a sensor chip optically.)

For data set [4], the system named is DNA: 3′-[…]-5, X = A, C, G, T (SEQ ID NO: 11). The following applies: PNA-DNA, cited from earlier work.
For data set [5], the system named is RNA: 3′-CGUACAXACU-5, X = A, C, G, U (SEQ ID NO: 12). The following applies: PNA-RNA, cited from earlier work.
[6] abbreviates: PNA-RNA duplex, 298 K, UV-melting curve fitting.
Where [7] appears, read: ratio of dissociation and association rate constants, † values uncertain, read-out: equilibrium dissociation constant Kd.
[8] abbreviates: range over mismatches, earlier study.

Take “H-ACGGGTAGAATAACAT-NH2 [PNA6] (all peptide nucleic acid (PNA); PNA oligomer with free N-terminus and C-terminal amide)”: the Sat. conc. in data set [1] is recorded as 39 mM. Besides, the “intensity of the DNA band” value in data set [2] (10 μM (PNA/DNA ratio of 25:1) or higher) was “completely disappeared”; in data set [2] (increasing concentrations of oligomer, 37° C., 16 hr), “drastic reduction”.
By pKd is commonly meant the negative decadic logarithm of the Kd, by convention in mol/L. On to “H-GCATGTTTGA-NH2 [PNA4] (PNA; 5 R-MP-gamma units; C-terminal amide; modified_base (2)..(2) R-MP-gamma-backbone modified nucleotide; modified_base (4)..(4) R-MP-gamma-backbone modified nucleotide; modified_base (6)..(6) R-MP-gamma-backbone modified nucleotide; modified_base (8)..(8) R-MP-gamma-backbone modified nucleotide; modified_base (10)..(10) R-MP-gamma-backbone modified nucleotide)”, for which, in the data set with complementary DNA strand, the pKd is 11.46, the “−ΔG°” value worked out at 15.5 ± 0.24 kcal/mol, the “−ΔH°” value amounted to 78.6 ± 3.35 kcal/mol and the “−ΔTS°” value worked out at 63.3 ± 2.87 kcal/mol. In the data set with complementary RNA strand (setting [6]), the “−ΔG°” value stood at 17.4 kcal/mol, the “−ΔH°” value came out at 85.1 kcal/mol and the “−ΔTS°” value was 67.6 kcal/mol. Also, in data set [3], the “association rate constant ka” value is 660000 M⁻¹ s⁻¹ and the “dissociation rate constant kd” value is on record as 0.3 × 10^−4 ^† s^−1. In addition, in data set [3] (setting [7]), the pKd is 10.39. Further, the “SPR-derived Kd relative to Kd determined by UV melting experiments” value in data set [3] (Table 3 versus Table 2, DNA target) is 12 fold.
“H-GCATGTTTGA-NH2 [PNA1] (all peptide nucleic acid (PNA); C-terminal amide)”: the results for the pKd (in the data set on complementary DNA strand; with complementary RNA strand (setting [6]); in data set [3] (read-out: Kd)) were 8.60, 10.46 and 8.55, respectively. The “−ΔG°” value in the data set on complementary DNA strand was 11.7 ± 0.24 kcal/mol; with complementary RNA strand (setting [6]), 14.3 kcal/mol. For the same substance, the “−ΔH°” value came out at 65.2 ± 1.2 kcal/mol in the data set with complementary DNA strand and 69.1 kcal/mol with complementary RNA strand (setting [6]). Besides, the “−ΔTS°” value in the data set with complementary DNA strand turned out to be 53.5 ± 1.2 kcal/mol; with complementary RNA strand (setting [6]), 54.7 kcal/mol. The “differential Tm (ΔTm), RNA versus DNA binding” value in the data set on complementary RNA strand (duplex with RNA compared to duplex with DNA) is 10 °C. Besides, in data set [3], the “association rate constant ka” value was found to be 470000 M⁻¹ s⁻¹. Besides, the “dissociation rate constant kd” value in data set [3] stood at 0.0013 s⁻¹. Further, the Tm was 31 °C in data set [4] (C<>T mismatch); 31 °C in data set [4] (G<>T mismatch); 35 °C in data set [4] (T(U)<>T mismatch); 45 °C in data set [4] (X = A (A-T perfect match)); 37 °C in data set [5] (C<>T mismatch); 44 °C in data set [5] (G<>T mismatch). Moreover, the Tm in data set [5] (T(U)<>T mismatch) is 40 °C; in data set [5] (X = A (A-T perfect match)), 55 °C. Further, the “ΔTm between the perfect match and mismatch” value in data set [4] (C<>T mismatch) was “(−14)^† ° C”; in data set [4] (G<>T mismatch) it was “(−14) ° C”; in data set [4] (T(U)<>T mismatch), “(−10) ° C”; in data set [5] (C<>T mismatch) it was “(−18) ° C”; in data set [5] (G<>T mismatch), “(−11) ° C”; in data set [5] (T(U)<>T mismatch), “(−15) ° C”. Moreover, the “ΔTm, single-base mismatch (X=C, G, T)” value in data set [4] (setting [8]) was −10 to −14 °C; in data set [5] (setting [8]), −11 to −18 °C.
Substance “H-ACGGGTAGAATAACAT-NH2 [PNA8] (PNA; 3 R-MP-gamma units; C-terminal amide; modified_base (1)..(1) R-MP-gamma-backbone modified nucleotide; modified_base (8)..(8) R-MP-gamma-backbone modified nucleotide; modified_base (15)..(15) R-MP-gamma-backbone modified nucleotide)” yielded a Sat. conc. in data set [1] of 108 mM.
For the substance “H-ACGGGTAGAATAACAT-NH2 [PNA9] (PNA; 5 R-MP-gamma units; C-terminal amide; modified_base (3)..(3) R-MP-gamma-backbone modified nucleotide; modified_base (6)..(6) R-MP-gamma-backbone modified nucleotide; modified_base (9)..(9) R-MP-gamma-backbone modified nucleotide; modified_base (12)..(12) R-MP-gamma-backbone modified nucleotide; modified_base (15)..(15) R-MP-gamma-backbone modified nucleotide)”, the Sat. conc. in data set [1] is reported as 350 mM.
As for “H-ACGGGTAGAATAACAT-NH2 [PNA10] (PNA; 8 R-MP-gamma units; C-terminal amide; modified_base (2)..(2) R-MP-gamma-backbone modified nucleotide; modified_base (4)..(4) R-MP-gamma-backbone modified nucleotide; modified_base (6)..(6) R-MP-gamma-backbone modified nucleotide; modified_base (8)..(8) R-MP-gamma-backbone modified nucleotide; modified_base (10)..(10) R-MP-gamma-backbone modified nucleotide; modified_base (12)..(12) R-MP-gamma-backbone modified nucleotide; modified_bas)”, the Sat. conc. in data set [1] was over 500 mM. The “intensity of the DNA bands” value in data set [2] (up to 20 μM (PNA/DNA ratio of 50:1)) is listed as “remained fairly constant”.
On to “H-GCATGTTTGA-NH2 [PNA3] (PNA; 3 R-MP-gamma units; C-terminal amide; modified_base (4)..(4) R-MP-gamma-backbone modified nucleotide; modified_base (6)..(6) R-MP-gamma-backbone modified nucleotide; modified_base (8)..(8) R-MP-gamma-backbone modified nucleotide)”, for which, in the data set on complementary DNA strand, the pKd was 10.29, the “−ΔG°” value stood at 14.1 ± 0.24 kcal/mol, the “−ΔH°” value was 75.5 ± 2.63 kcal/mol and the “−ΔTS°” value worked out at 61.2 ± 2.63 kcal/mol. Moreover, in the data set with complementary RNA strand (setting [6]), the “−ΔG°” value amounted to 17 kcal/mol, the “−ΔH°” value stood at 83.7 kcal/mol and the “−ΔTS°” value came out at 66.9 kcal/mol. In addition, in data set [3], the “association rate constant ka” value came out at 620000 M⁻¹ s⁻¹ and the “dissociation rate constant kd” value was 0.00019 s⁻¹. The pKd in data set [3] (setting [7]) is 9.52.
As to “H-ACGGGTAGAATAACAT-NH2 [PNA7] (PNA; 1 R-MP-gamma unit; C-terminal amide; modified_base (8)..(8) R-MP-gamma-backbone modified nucleotide)”, the Sat. conc. in data set [1] came out at 76 mM.
On to “H-GCATGTTTGA-NH2 (all [RMPγPNA-N], methylation of C not given here; C-terminal amide) [PNA5]”, for which the pKd in data set [3] (setting [7]) is 10.27.
